The values below come from US20240116926A1, “HETEROAROMATIC COMPOUNDS” (AstraZeneca AB, priority 2022, published 2024).

The target of data set [1] is TEAD4(217-434) (Homo sapiens (Human), UniProt Q15561). The data set can be described thus: TEAD4 FRET. In kind it is binding. The conditions noted are these: depalmitoylated, biotinylated TEAD4(217-434), FAM labelled Probe A, 120 min at 25° C.
Data set [2] deals with MCF7-Tead cell line. The data set is described as follows: TEAD reporter assay. In kind it is cell-based. The following applies: MCF7-Tead cells, luciferase activity after 24 hours.
The test system of data set [3] is MCF7-Luciferase cell line. The data set is described as follows: Control reporter (MCF7-Luciferase). The following applies: MCF7-Luciferase cells, luciferase activity after 24 hours. It is filed as cell-based.
A short description of data set [4]: Solubility (thermodynamic, shake-flask). It is filed as physicochemical. The conditions noted are these: thermodynamic from solid; aqueous phosphate buffer (pH 7.4), 24 hours at 25° C. In a few lines: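 Shake-flask method starting from 10 mM DMSO stocks, which are dried before use. Residue equilibrated 24 h at 25° C. in aqueous phosphate buffer, pH 7.4. Dissolved fraction separated and quantified by UPLC/MS/MS, with QC samples in each run.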

The nature of data set [5]: Protein binding measurements in human plasma (Hu PPB). In kind it is in vitro ADME. The following applies: equilibrium dialysis for 18 hours, fraction unbound. The procedure:
The automated equilibrium dialysis assay in human plasma uses the RED (Rapid Equilibrium Dialysis) Device and sample handling. The assay generally runs over two to three days including delivery of results. After dialysis for 18 hours, plasma and buffer samples are prepared for analysis by liquid chromatography and mass spectrometry. Samples are generally tested in singlicates and quantified by LC/MSMS by using a 7-point calibration curve in plasma. The compounds are pooled together in plasma pools up to 10 compounds. Three reference compounds are used in each run, Propranolol, Metoprolol and Warfarin. Warfarin is used as a control in each pool and Propranolol and Metoprolol are placed randomly in each run. An in-house Excel macro is used for preparation of files for the robot and the mass spectrometer and is also used for the calculations of fraction unbound (fu %) in plasma.

SMILES strings stand for the structures. In brackets after ≈: the same amount, converted by molar mass. A value given as a limit tells only on which side of the number the result lay.

Sequence of TEAD4(217-434) (Q15561 217-434): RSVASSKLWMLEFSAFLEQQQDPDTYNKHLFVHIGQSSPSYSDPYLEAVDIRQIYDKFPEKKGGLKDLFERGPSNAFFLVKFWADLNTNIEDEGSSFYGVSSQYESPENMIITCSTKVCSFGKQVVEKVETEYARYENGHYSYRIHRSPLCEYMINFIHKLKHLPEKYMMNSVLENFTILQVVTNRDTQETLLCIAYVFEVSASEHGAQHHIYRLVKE

Turning to `C=CC(=O)N1CC[C@H](Nc2ncc(-c3ccc(C(F)(F)F)cc3)c3ncccc23)C1` [Example 39, (S)-1-(3-((8-(4-(trifluoromethyl)phenyl)-1,6-naphthyridin-5-yl)amino)pyrrolidin-1-yl)prop-2-en-1-one], the IC50 was 0.013 µM in data set [1], 0.005 µM in data set [2] and above 31.7 µM in data set [3]. In addition, the solubility at 24 h in data set [4] was determined as 20 µM (≈ 8.25 µg/mL). In data set [5], the “Hu PPB (% free)” value is 1.4 % free.

For `C=CC(=O)N[C@H]1CCN(c2nc(-c3ccc(C(F)(F)F)cc3)nc3ccccc23)C1` (racemic) [Comparative Example D, N-(1-{2-[4-(trifluoromethyl)phenyl]-4-quinazolinyl}-3-pyrrolidinyl)acrylamide, reference compound], the IC50 in data set [1] is 2.9 µM; in data set [2], 1.78 µM; in data set [3], above 31.7 µM. The compound further returned a solubility at 24 h in data set [4] of 0.6 µM (≈ 0.247 µg/mL). For the same compound, the “Hu PPB (% free)” value in data set [5] was 0.2 % free.

Consider `C=CC(=O)N1C[C@@H](CO)[C@H](Nc2nnc(-c3ccc(C(F)(F)F)cc3)c3cccc(F)c23)C1` [Example 15, 1-((3S,4R)-3-((8-fluoro-4-(4-(trifluoromethyl)phenyl)phthalazin-1-yl)amino)-4-(hydroxymethyl)pyrrolidin-1-yl)prop-2-en-1-one], for which the IC50 in data set [1] was found to be 0.025 µM; in data set [2], 0.015 µM; in data set [3] it was 30.8 µM. Besides, in data set [4], the solubility at 24 h was 135 µM (≈ 62.2 µg/mL). For the same compound, the “Hu PPB (% free)” value in data set [5] amounted to 11.0 % free.

Regarding `C=CC(=O)N1C[C@@H](CO)[C@H](Nc2nnc(-c3ccc(C(F)(F)F)cc3)c3ncccc23)C1` [Example 25, 1-((3R,4S)-3-(hydroxymethyl)-4-((8-(4-(trifluoromethyl)phenyl)pyrido[2,3-d]pyridazin-5-yl)amino)pyrrolidin-1-yl)prop-2-en-1-one], the IC50 is 0.057 µM in data set [1], 0.025 µM in data set [2] and above 31.7 µM in data set [3]. In data set [4], this compound displayed a solubility at 24 h of 32 µM (≈ 14.2 µg/mL). Also, the “Hu PPB (% free)” value in data set [5] came to 12.0 % free.

With `C=CC(=O)N1C[C@H](O)[C@H](Nc2nnc(-c3ccc(C(F)(F)F)cc3)c3cccc(F)c23)C1` [Example 14, 1-((3R,4S)-3-((8-fluoro-4-(4-(trifluoromethyl)phenyl)phthalazin-1-yl)amino)-4-hydroxypyrrolidin-1-yl)prop-2-en-1-one], the half-maximal inhibitory concentration (IC50) in data set [1] is 0.049 µM; in data set [2] it was 0.026 µM; in data set [3], 19.2 µM. In data set [4], the solubility at 24 h was found to be 39 µM (≈ 17.4 µg/mL). Besides, in data set [5], the “Hu PPB (% free)” value is on record as 7.7 % free.

Turning to `C=CC(=O)N1CC[C@H](Nc2ncc(-c3ccc(C(F)(F)F)cc3)c3nccnc23)C1` [Example 45, (S)-1-(3-((8-(4-(trifluoromethyl)phenyl)pyrido[3,4-b]pyrazin-5-yl)amino)pyrrolidin-1-yl)prop-2-en-1-one], the half-inhibitory concentration (IC50) in data set [1] stood at 0.012 µM; in data set [2], 0.011 µM; in data set [3], 19 µM. In addition, the solubility at 24 h in data set [4] stood at 13.6 µM (≈ 5.62 µg/mL). Moreover, in data set [5], the “Hu PPB (% free)” value is 3.9 % free.

Take `C=CC(=O)N1CC[C@H](Nc2nnc(-c3ccc(C(F)(F)F)cc3)c3cccc(F)c23)C1` [Example 13, (S)-1-(3-((8-fluoro-4-(4-(trifluoromethyl)phenyl)phthalazin-1-yl)amino)pyrrolidin-1-yl)prop-2-en-1-one]: the IC50 in data set [1] was 0.041 µM; in data set [2], 0.03 µM; in data set [3], above 31.7 µM. Also, in data set [4], the solubility at 24 h turned out to be 40 µM (≈ 17.2 µg/mL). Also, in data set [5], the “Hu PPB (% free)” value is recorded as 6.1 % free.

With `C=CC(=O)N1C[C@@H](COC)[C@H](Nc2nnc(-c3ccc(C(F)(F)F)cc3)c3ccccc23)C1` [Example 28, 1-((3R,4S)-3-(methoxymethyl)-4-((4-(4-(trifluoromethyl)phenyl)phthalazin-1-yl)amino)pyrrolidin-1-yl)prop-2-en-1-one], the IC50 in data set [1] was 0.061 µM; in data set [2], 0.071 µM; in data set [3] it was above 31.7 µM. In data set [4], the solubility at 24 h came out at 168 µM (≈ 76.7 µg/mL). Besides, the “Hu PPB (% free)” value in data set [5] was determined as 3.9 % free.

With `C=CC(=O)NC1(CNc2nnc(-c3ccc(C(F)(F)F)cc3)c3ccccc23)CCC1` [Example 41, N-(1-(((4-(4-(trifluoromethyl)phenyl)phthalazin-1-yl)amino)methyl)cyclobutyl)acrylamide], the IC50 is 0.072 µM in data set [1], 0.152 µM in data set [2] and 21.5 µM in data set [3]. This compound also came in with a solubility at 24 h in data set [4] of 72 µM (≈ 30.7 µg/mL). For the same compound, the “Hu PPB (% free)” value in data set [5] was determined as 0.9 % free.

Regarding `C=CC(=O)N1C[C@H](O)[C@H](Nc2nnc(-c3ccc(C(F)(F)F)cc3)c3ncccc23)C1` [Example 32, 1-((3S,4R)-3-hydroxy-4-((8-(4-(trifluoromethyl)phenyl)pyrido[2,3-d]pyridazin-5-yl)amino)pyrrolidin-1-yl)prop-2-en-1-one], the IC50 in data set [1] was 0.042 µM; in data set [2], 0.065 µM; in data set [3], above 31.7 µM. In data set [4], this compound came in with a solubility at 24 h of 52 µM (≈ 22.3 µg/mL). Further, the “Hu PPB (% free)” value in data set [5] amounted to 16.0 % free.
